PubChem BioAssay AID1626 (SRMLSC, 2009)

Tested on: M. tuberculosis H37Rv growth inhibition
Test: M. tuberculosis H37Rv growth inhibitors, H37Rv strain (AID 1626)
Conditions: for CC50: measured here: Vero cell cytotoxicity; for IC90: measured here: IC90 against H37Rv

O=C(Nc1cc(Cl)ccc1O)c1cc2n(n1)C(C(F)(F)F)CC(c1ccc3c(c1)OCO3)N2 (centres undefined)
CC50: > 40 µM

CCc1ccc(NC(=O)c2cnc(N3CCN(c4ccccn4)CC3)c3ccccc23)cc1
IC50: 0.444 µM
IC90: 5.71 µM
CC50: > 40 µM

CSc1ccc(NC(=O)N2CC=C(n3c(=O)[nH]c4ccccc43)CC2)cc1
CC50: > 40 µM

CCOC(=O)c1ccc(NC(=O)CCc2nc(-c3ccc(Cl)cc3)no2)cc1
IC50: 0.898 µM
IC90: 18.4 µM

Nc1ccc2oc(-c3cccc(Br)c3)nc2c1
IC50: 3.98 µM
IC90: > 100 µM

CC1CCN(c2nc(-c3cccnc3)nc3scc(-c4ccccc4)c23)CC1
IC50: 5.94 µM
IC90: 65.3 µM

Clc1cccc2c1Sc1ccccc1CC2N1CCNCC1 (centres undefined)
IC50: 3.12 µM
IC90: 6.58 µM
CC50: 11.2 µM

CCCCCCCCCCNC(=O)C(=O)Nc1ccccn1
IC50: 6.97 µM
IC90: > 100 µM

Cc1ccc(N(CCC#N)C(=O)CCl)cc1C
IC50: 19.7 µM
IC90: 38.4 µM
CC50: 1.94 µM

O=C(Nc1cc(Cl)cc(Cl)c1)N1CCCC1
IC50: 12.2 µM
IC90: 17.6 µM
CC50: > 40 µM

O=C(C1CCN(c2nnc(-n3cccc3)s2)CC1)N1CCc2ccccc2C1
IC50: 0.701 µM
IC90: 0.937 µM

O=C(Nc1nnc(-c2ccc(Cl)cc2)o1)c1ccccc1Br
IC50: 1.12 µM
IC90: 3.35 µM
CC50: > 40 µM

Cc1cc(C)n(-c2nc(SCCN(C)C)c3c4c(sc3n2)CCCC4)n1
IC50: 4.2 µM
IC90: 6.19 µM
CC50: 11.6 µM

CC(C)(C)c1ccc(C(=O)CC(=O)c2cc(Cl)ccc2O)cc1
IC50: 2.67 µM
IC90: 3.14 µM
CC50: 12.4 µM

O=[N+]([O-])c1ccc(Sc2nc3ccccc3o2)c([N+](=O)[O-])c1
IC50: 3.69 µM
IC90: 5.16 µM
CC50: 8.69 µM

COc1cnc(-c2ccccn2)nc1Oc1ccc(F)cc1F
IC50: 19.1 µM
IC90: > 100 µM
CC50: > 40 µM

CC(C)(C)c1ccc(-c2cn(-c3ccc(Br)cc3)c3[n+]2CCCS3)cc1
IC50: 2.62 µM
IC90: 4.97 µM
CC50: 13.3 µM

COc1ccc(OC)c(C2C3=C(N=c4s/c(=C\c5cccc(O)c5)c(=O)n42)c2ccccc2CC3)c1 (centres undefined)
IC50: 11.1 µM
IC90: > 100 µM
CC50: 19.9 µM

CN1CCN(c2ccccc2NC(=O)c2cc3c(s2)-c2ccccc2OC3)CC1
IC50: 8.62 µM
IC90: 17.7 µM
CC50: 10.7 µM

CCCCCC(=O)Nc1ccc(-c2csc(C)n2)cc1
IC50: 46 µM
IC90: > 100 µM

CCOC(=O)c1cnn(C(=O)c2ccccc2)c1N
IC90: > 100 µM

OCCc1ccc(-c2ccc(Cl)cc2)o1
IC50: 23.5 µM
IC90: > 100 µM

O=C(c1ccc2c(c1)[nH]c(=S)n1c3ccccc3nc21)N1CCN(c2cccc(Cl)c2)CC1
IC50: 4.39 µM
IC90: 32.3 µM
CC50: 26.5 µM

CCn1cc(C(=O)NCc2cccc(F)c2)c(=O)c2cc(F)c(N3CCN(C(=O)c4ccco4)CC3)cc21
IC50: 2.69 µM
IC90: 6.52 µM
CC50: 27 µM

C#CCn1c(=NC(=O)c2cc(Cl)sc2Cl)sc2cc(S(N)(=O)=O)ccc21
IC50: 1.57 µM
IC90: > 100 µM
CC50: > 40 µM

COc1ccc(C[C@H]2CN3C(=NC[C@@H]3Cc3ccc(O)cc3)N2CCNC(=O)c2ccc(C)c(Br)c2)cc1
IC50: 4.4 µM
IC90: 6.16 µM
CC50: > 40 µM

Cc1ccc2c(c1)Cc1nc3ccccc3nc1-2
IC50: 83.5 µM
IC90: > 100 µM
CC50: > 40 µM

O=C(Nc1nnc(-c2ccncc2)o1)c1ccc(Br)s1
IC50: 15 µM
IC90: 29.7 µM
CC50: 20.6 µM

CCCCCc1cc(=O)oc2c(C(CCN3CCCC(C)C3)c3ccc(N(C)C)cc3)c(OC)cc(OC)c12 (centres undefined)
IC50: 5.6 µM
IC90: 6.31 µM
CC50: 16.5 µM

COC(=O)C1C2c3ccccc3OC1(C)N=c1s/c(=C/c3cnn(C)c3C)c(=O)n12 (centres undefined)
IC50: 2.43 µM
IC90: 17.7 µM

Clc1ccc(-c2nnc(SCc3nc4ccccc4s3)o2)cc1
IC50: 5.3 µM
IC90: > 100 µM

Nc1nnc(SCc2ccc(F)cc2)s1
IC90: > 100 µM

Cc1ccc(Oc2cc(NC(=O)CCCn3nc(C)c([N+](=O)[O-])c3C)cc([N+](=O)[O-])c2)cc1
IC50: 2.33 µM
IC90: 3.34 µM
CC50: > 40 µM

COc1ccc(Nc2nc(-c3ccc4c(c3)NC(=O)CO4)cs2)cc1
IC50: 10 µM
IC90: > 100 µM
CC50: > 40 µM

Clc1ccc(Nc2ncn[nH]2)c(Cl)c1
IC50: 6.68 µM
IC90: > 100 µM
CC50: > 40 µM

COc1ccccc1Sc1nc(-c2ccccn2)ncc1OC
IC50: 1.04 µM
IC90: > 100 µM
CC50: 7.61 µM

c1ccc(-c2nc(NCCCn3ccnc3)c3ccccc3n2)cc1
IC50: 5.87 µM
IC90: 8.05 µM
CC50: > 40 µM

OC1(C#Cc2c(-c3ccsc3)oc3ccc(N4CCOCC4)cc23)CCCCC1
IC50: 15 µM
IC90: > 100 µM
CC50: > 40 µM

Cn1c(NCc2ccccc2)nc2c1c(=O)n(Cc1ccc(Br)cc1)c(=O)n2C
IC50: 13.8 µM
IC90: > 100 µM
CC50: > 40 µM

COC(=O)CN1C(c2cccc(Cl)c2)=Nc2ccc(Cl)cc2C1c1ccccc1 (centres undefined)
IC50: 11.9 µM
IC90: 13.6 µM

COc1ccc(/C=c2\s/c(=C\C(=O)C(C)(C)C)[nH]c2=O)cc1O
IC50: 5.62 µM
IC90: 7.63 µM
CC50: 25.3 µM

CCOc1ccc(NCC(=O)Nc2ccc(Cl)cc2C)cc1
IC50: 8.53 µM
IC90: > 100 µM

O=c1[nH]c(=O)n(Cc2ccccc2Cl)c(O)c1/C=C1/C=CC=N1
IC50: < 0.391 µM
IC90: 3.23 µM
CC50: 27.2 µM

CN(C)c1ccc(O)c2c1CC1CC3[C@@H](N(C)C)C(=O)C(C(N)=O)=C(O)[C@]3(O)C(=O)C1=C2O (some centres undefined)
IC50: 3.14 µM
IC90: 7.87 µM
CC50: > 40 µM

CCOC(=O)COc1ccc2ccccc2c1/C=C/[N+](=O)[O-]
IC50: 3.01 µM
IC90: 3.47 µM
CC50: 39.2 µM

Cc1ccc(-c2ccc(C3C(C#N)=C(N)Oc4n[nH]c(C)c43)o2)cc1 (centres undefined)
IC50: 2.37 µM
IC90: > 100 µM
CC50: > 40 µM

CCCOC(=O)c1ccc(NC(=O)c2cnccn2)cc1
IC50: 15 µM
IC90: > 100 µM

COc1cc2c(cc1NC(=O)CSc1nc3ccccc3[nH]1)oc1ccccc12
IC50: 10.4 µM
IC90: > 100 µM
CC50: > 40 µM

COc1ccc(-c2nnc(NC(=O)c3cc(Cl)ccc3Cl)o2)cc1
IC50: 1.2 µM
IC90: > 100 µM
CC50: 38.8 µM

COc1ccc(-c2nnc(NC(=O)C3=COCCO3)o2)cc1
IC50: 12.7 µM
IC90: 19.7 µM
CC50: > 40 µM

COC(=O)CSc1nnc(-c2sc3ccccc3c2Cl)o1
IC50: 8.67 µM
IC90: 36.2 µM

O=C(Oc1cccc(-c2cnc3ccccc3n2)c1)c1ccco1
IC50: 1.39 µM
IC90: > 100 µM

Cc1ccc(Nc2ccccc2N)cc1
IC50: 1.46 µM
IC90: 1.66 µM

COc1ccc(N2CCN(CC(=O)Nc3nc4c(s3)CC(C)CC4)CC2)cc1 (centres undefined)
IC50: 4.42 µM
IC90: 49.1 µM

O=C(Nc1nc2ccccc2n1CCN1CCOCC1)c1ccc(Cl)cc1
IC50: 26.5 µM
IC90: > 100 µM
CC50: > 40 µM

COc1cc(N=c2c([N+](=O)[O-])nn(-c3ccc4c(c3)OCCO4)n2O)cc(OC)c1
CC50: 16.2 µM

O=C1CCC(=O)N1CNc1ccc(Oc2ccccc2)cc1
IC50: 2.58 µM
IC90: > 100 µM

N#Cc1ccc(/C=C/C(=O)c2cccnc2)cc1
IC50: 4.84 µM
IC90: 6.15 µM
CC50: 19.3 µM

CC(=O)OCCCN1c2ccccc2Nc2nnc(-c3ccccc3)cc21
IC90: > 100 µM
CC50: > 40 µM

Cc1cc(C)cc(OCc2nnc(SCC(=O)OC3CCCCC3)o2)c1
IC50: 1.83 µM
IC90: 11.8 µM

O=C1C2C(c3ccccc3)(C(=O)N1c1ccc(Cl)cc1)C2(c1ccccc1)c1ccccc1 (centres undefined)
IC50: 22.4 µM
IC90: > 100 µM
CC50: > 40 µM

O=C(/C=C/c1cccc([N+](=O)[O-])c1)c1cccs1
IC50: 11.1 µM
IC90: 12.8 µM

CCOc1ccc2nc(NC(=O)C(CC)Sc3nc(C)cc(=O)[nH]3)sc2c1 (centres undefined)
IC50: 35.7 µM
IC90: > 100 µM
CC50: > 40 µM

Cc1ccc(Oc2nc(CN3CCOCC3)nc3sc4c(c23)CCC(C)C4)cc1 (centres undefined)
IC50: 17.1 µM
IC90: 22.4 µM
CC50: > 40 µM

CCCCCCCn1c(NC(=O)CC)nc2ccccc21
IC50: < 0.195 µM
IC90: 1.58 µM
CC50: 29.2 µM

CCCCOC(=O)c1ccc(NC(=O)C(=O)NCc2ccccn2)cc1
IC90: > 100 µM

O=C(NCCCn1ccnc1)c1nn2c(C(F)(F)F)cc(-c3ccc(Br)cc3)nc2c1Cl
IC50: 6.53 µM
IC90: 9.35 µM
CC50: > 40 µM

Cc1cc(=O)[nH]c(SCC(=O)C23CC4CC(CC(C4)C2)C3)c1C#N
IC90: > 100 µM
CC50: 21.2 µM

CCOC(=O)c1cnc(-n2nc(C)cc2C)nc1Nc1ccc(N(C)C)cc1
IC50: < 0.195 µM
IC90: < 0.195 µM
CC50: 23.9 µM

O=C(CCl)Nc1cn(-c2ccccc2)nc1-c1ccccc1
IC50: 9.87 µM
IC90: 38.6 µM
CC50: 9.49 µM

COc1ccc(Cn2c(O)c(/C=C3/C=CC=N3)c(=O)[nH]c2=O)cc1
IC50: 0.269 µM
IC90: > 100 µM
CC50: > 40 µM

CNC(=O)c1c(NC(=O)c2nc3ccccc3s2)sc2c1CCC2
CC50: > 40 µM

CC(C)c1ccc(NC(=O)NC2CCCCC2)cc1
IC50: 6.27 µM
IC90: > 100 µM

Nc1scc(-c2ccncc2)c1Cl
IC50: 5.32 µM
IC90: > 100 µM
CC50: > 40 µM

CCOC(=O)C(C)Sc1nnc(NC(=O)c2ccc(C)c([N+](=O)[O-])c2)s1 (centres undefined)
IC50: 6.69 µM
IC90: 12.1 µM

COc1ccc(-c2csc(NC(C)c3nc4cc(Cl)c(N5CCCCC5)cc4n3CCCO)n2)cc1 (centres undefined)
IC50: 12.7 µM
IC90: > 100 µM
CC50: > 40 µM

O=C(COc1ccc2ccccc2c1)Nc1nccs1
IC90: > 100 µM

CC(C)[C@H](CO)N(Cc1cccc(F)c1)c1nc(Nc2cccc(Cl)c2)c2ncn(C(C)C)c2n1
IC50: 7.31 µM
IC90: 14.1 µM
CC50: > 40 µM

CCCc1ccc(C2C3=C(CC(C)(C)CC3=O)NC3=C2C(=O)c2ccccc23)cc1 (centres undefined)
IC50: 5.54 µM
IC90: > 100 µM
CC50: > 40 µM

c1ccc(Nc2nc(-c3ccccn3)cs2)cc1
IC50: 0.376 µM
IC90: 0.854 µM
CC50: > 40 µM

O=C1C=C(Nc2ccccc2)c2ccccc2C1=O
IC50: 12.3 µM
IC90: 21.2 µM
CC50: 13.7 µM
